Results: US20250179027A1, “CYCLOALKYL OR HETEROCYCLYL SUBSTITUTED HETEROARYL COMPOUND, AND COMPOSITION AND USE THEREOF” (Shenzhen TargetRx, Inc., priority 2022, published 2025)

How the values were obtained:
[1] = biological target: T1, phosphorylated BTK Y223 in NIH/3T3 BTK WT cells (Homo sapiens, UniProt Q06187); assay: Phosphor-BTK(Y223) assay, NIH/3T3 BTK WT cells; type: cell-based; details: phosphorylated BTK Y223, NIH/3T3 BTK WT cells; read-out: NIH/3T3 BTK-WT pBTK IC50
T1 construct: expressed in transfected cells; host or cells: NIH/3T3 (mouse fibroblasts) engineered to express BTK WT
T1 sequence (Q06187 whole entry): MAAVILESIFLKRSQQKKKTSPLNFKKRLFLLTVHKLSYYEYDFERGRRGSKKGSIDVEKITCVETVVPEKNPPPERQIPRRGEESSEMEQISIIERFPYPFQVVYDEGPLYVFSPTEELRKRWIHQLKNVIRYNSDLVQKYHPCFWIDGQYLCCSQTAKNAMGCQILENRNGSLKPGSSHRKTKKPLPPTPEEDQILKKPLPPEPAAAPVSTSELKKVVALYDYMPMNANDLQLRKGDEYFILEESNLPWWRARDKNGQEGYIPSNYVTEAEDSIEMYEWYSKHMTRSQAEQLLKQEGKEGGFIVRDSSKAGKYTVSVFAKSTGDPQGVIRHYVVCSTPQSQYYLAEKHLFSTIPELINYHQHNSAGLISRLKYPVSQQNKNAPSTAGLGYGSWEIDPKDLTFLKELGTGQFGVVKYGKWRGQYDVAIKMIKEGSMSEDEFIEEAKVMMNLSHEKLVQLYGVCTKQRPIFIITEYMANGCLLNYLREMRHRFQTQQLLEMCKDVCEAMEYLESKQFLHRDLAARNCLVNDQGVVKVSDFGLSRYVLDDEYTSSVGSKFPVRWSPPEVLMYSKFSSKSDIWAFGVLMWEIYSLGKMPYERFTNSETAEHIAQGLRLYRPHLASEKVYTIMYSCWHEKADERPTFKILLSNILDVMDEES
Protocol: (§1) The purpose of this assay is to simply, quickly and directly detect the endogenous level of BTK in cells. The specific assay steps are as follows: Day 1: NIH/3T3 BTK WT cells (7.5 k/well) and NIH/3T3 BTK C481S cells (10 k/well) were plated in 96-well plates, respectively, and cultured overnight at 37° C. and 5% CO2.
(§2) • 1. A 3-fold final concentration gradient dilution of the compound was prepared, and 50 μL was added to 100 μL of cell culture; 0.5% DMSO was used as a positive control for cell growth. • 2. The plate was incubated at 37° C., 5% CO2 for 0.5 h. • 3. Na3VO4 with a final concentration of 1 mM was added, and incubated at 37° C. and 5% CO2 for 2 hours. • 4. During the incubation, the following reagents were prepared: 1× added lysis buffer: 3 vol ddH2O+1 vol 4× lysis buffer+100× blocking reagent. p-BTK (Y223) cryptate-antibody and p-BTK (Y223) d2-antibody working solutions: 1 volume of each cryopreserved antibody (stored at −20° C.) was added to 19 times volumes of assay buffer (stored at 4° C.). • 5. After the incubation, the medium was removed and 50 μL of 1× added lysis buffer was added; The mixture was centrifuged at 500 rpm for 30 min at room temperature. • 6. The lysate was mixed well and 16 μL was transferred to a 384-well plate; 1× added lysis buffer was used as a blank control. • 7. 4 μL of pre-mixed working solutions of the two antibodies (cryptate Ab:d2 Ab=1:1) were added and the plate was sealed. • 8. The plate was incubated overnight at room temperature.
(§3) Biotek cytation3.0 microplate reader was used to read the plate at 665 nm and 620 nm, and the ratio of 665/620 nm per well was calculated.
(§4) IC50 was calculated using GraphPad Prism 7.0 software.
(§5) The following nonlinear fitting formula was used to obtain the phosphorylated BTK Y223 IC50 (half phosphorylation inhibitory concentration) of the compounds:
(§6) [formula] • X: Compound concentration log value • Y: Inhibition rate (% inhibition)
(§7) The formula for calculating cell phosphorylation inhibition rate (% inhibition rate) was: […]

[2] = biological target: T2, phosphorylated BTK Y223 in NIH/3T3 BTK C481S cells (Homo sapiens, UniProt Q06187, C481S); assay: Phosphor-BTK(Y223) assay, NIH/3T3 BTK C481S cells; type: cell-based; details: phosphorylated BTK Y223, NIH/3T3 BTK C481S cells; read-out: NIH/3T3 BTK-C481S pBTK IC50
T2 construct: expressed in transfected cells; host or cells: NIH/3T3 (mouse fibroblasts) engineered to express BTK C481S
T2 sequence (Q06187 whole entry C481S): as the sequence (Q06187 whole entry) above, with C481S counted along it
Protocol: as §1, §2, §3, §4, §5, §6, §7

COc1ccc(F)cc1C(=O)NCc1ccc(-c2nn([C@H]3CCC[C@H](O)C3)c3ncnc(N)c23)cc1 (racemic) [Example 9, trans-N-(4-(4-amino-1-(3-hydroxycyclohexanyl)-1H-pyrazolo[3,4-d]pyrimidin-3-yl)benzyl)-5-fluoro-2-methoxybenzamide]
IC50 [1]: ≤ 25 nM
IC50 [2]: ≤ 25 nM

COc1ccc(F)cc1C(=O)NCc1ccc(-c2nn([C@@H]3C=C[C@@H](O)C3)c3ncnc(N)c23)cc1 (single isomer, unassigned) [Example 37, trans-N-(4-(4-amino-1-(4-hydroxycyclopent-2-en-1-yl)-1H-pyrazolo[3,4-d]pyrimidin-3-yl)benzyl)-5-fluoro-2-methoxybenzamide]
IC50 [1]: 25 to 50 nM
IC50 [2]: 50 to 100 nM

COc1ccc(F)cc1C(=O)NCc1ccc(-c2nn(C3CCC(O)C3)c3c(=O)[nH]nc(N)c23)cc1 (stereo not shown) [Example 42, N-(4-(4-amino-1-(3-hydroxycyclopentanyl)-7-oxo-6,7-dihydro-1H-pyrazolo[3,4-d]pyridazin-3-yl)benzyl)-5-fluoro-2-methoxybenzamide]
IC50 [1]: 50 to 100 nM
IC50 [2]: 50 to 100 nM

COc1ccc(F)cc1C(=O)NCc1ccc(-c2nn(C3CCCC(C)(O)C3)c3ncnc(N)c23)cc1 (single isomer, unassigned) [Example 23, N-(4-(4-amino-1-(3-hydroxy-3-methylcyclohexanyl)-1H-pyrazolo[3,4-d]pyrimidin-3-yl)benzyl)-5-fluoro-2-methoxybenzamide]
IC50 [1]: 25 to 50 nM
IC50 [2]: 25 to 50 nM

COc1ccc(F)cc1C(=O)NCc1ccc(-c2nn(C3CCC(CO)OC3)c(N)c2C(N)=O)cc1 (stereo not shown) [Example 12, 5-amino-3-(4-((5-fluoro-2-methoxybenzamido)methyl)phenyl)-1-(6-(hydroxymethyl)tetrahydro-2H-pyran-3-yl)-1H-pyrazole-4-carboxamide]
IC50 [1]: 100 to 500 nM
IC50 [2]: 100 to 500 nM

COc1ccc(F)cc1C(=O)NCc1ccc(-c2nn(C3CCCC(C)(O)C3)c3ncnc(N)c23)cc1 (single isomer, unassigned) [Example 24, N-(4-(4-amino-1-(3-hydroxy-3-methylcyclohexanyl)-1H-pyrazolo[3,4-d]pyrimidin-3-yl)benzyl)-5-fluoro-2-methoxybenzamide]
IC50 [1]: ≤ 25 nM
IC50 [2]: 25 to 50 nM

COc1ccc(F)cc1C(=O)NCc1ccc(-c2nn(C3CCCC(O)C3)c(N)c2C(N)=O)cc1 (single isomer, unassigned) [Example 2, 5-amino-3-(4-((5-fluoro-2-methoxybenzoylamino)methyl)phenyl)-1-(3-hydroxycyclohexyl)-1H-pyrazole-4-carboxamide]
IC50 [1]: 50 to 100 nM
IC50 [2]: 50 to 100 nM

COc1ccc(F)cc1C(=O)NCc1ccc(-c2nn([C@H]3CC[C@@H](O)CC3)c3c(=O)[nH]nc(N)c23)cc1 [Example 39, cis-N-(4-(4-amino-1-((1S,4S)-4-hydroxycyclohexanyl)-7-oxo-6,7-dihydro-1H-pyrazolo[3,4-d]pyridazin-3-yl)benzyl)-5-fluoro-2-methoxybenzamide]
IC50 [1]: 50 to 100 nM
IC50 [2]: 100 to 500 nM

COc1ccc(F)cc1C(=O)NCc1ccc(-c2nn(C3CCCC(C)(O)C3)c3ncnc(N)c23)cc1 (single isomer, unassigned) [Example 28, N-(4-(4-amino-1-(3-hydroxy-3-methylcyclohexanyl)-1H-pyrazolo[3,4-d]pyrimidin-3-yl)benzyl)-5-fluoro-2-methoxybenzamide]
IC50 [1]: ≤ 25 nM
IC50 [2]: 25 to 50 nM

COc1ccc(F)cc1C(=O)NCc1ccc(-c2nn(C3CCC(CO)OC3)c3c(=O)[nH]nc(N)c23)cc1 (single isomer, unassigned) [Example 48, N-(4-(4-amino-1-(6-(hydroxymethyl)tetrahydro-2H-pyran-3-yl)-7-oxo-6,7-dihydro-1H-pyrazolo[3,4-d]pyridazin-3-yl)benzyl)-5-fluoro-2-methoxybenzamide]
IC50 [1]: 100 to 500 nM
